Each structure is given as a SMILES string. Active and inactive are the calls of the source. No cut-off for these calls is given here.

What is called EC50 is the midpoint of the concentration-response curve. Usually half-life stands for how long it takes for the measured level to halve. A high value points to slow loss. In general, fraction unbound refers to the share of the substance not bound to proteins or other matrix. As usually defined, the Cmax is the peak of the concentration-time curve. Usually CC50 stands for the concentration giving 50% cytotoxicity.

Data set [1] has as its system Trypanosoma brucei. In words: Antitrypanosomal activity against Trypanosoma brucei assessed as parasite growth inhibition in presence of 50% mouse serum. Type of data set: functional, organism-based.
Data set [2] in a line: Half life in human hepatocytes. It is filed as ADME, cell-based, Hepatocyte.
The nature of data set [3]: Half life in mouse hepatocytes. It is filed as ADME, cell-based, Hepatocyte.
The test system of data set [4] is Trypanosoma brucei. In words: Antitrypanosomal activity against Trypanosoma brucei assessed as parasite growth inhibition in presence of 10% FBS. Type of data set: functional, organism-based.
Data set [5] can be described thus: Protein binding in mouse plasma assessed as unbound fraction. Type of data set: ADME, cell-free.
Data set [6] in a line: Oral bioavailability in C57BL6 mouse at 30 mg/kg. Type of data set: ADME, organism-based. To be noted: in vivo.
Data set [7] can be described thus: Cmax in C57BL6 mouse at 30 mg/kg, ip. Type of data set: ADME, organism-based. The arrangement: dose 30 mg/kg, route intraperitoneal. To be noted: in vivo.
Data set [8] can be described thus: (§1) Cytotoxicity against human HeLa cells assessed as reduction in cell viability. The settings on record: HeLa cells. Type of data set: cell-based.
Data set [9] can be described thus: (§2) Cytotoxicity against HUVEC assessed as reduction in cell viability. Type of data set: cell-based. The settings on record: human.
Data set [10] in a line: Permeability in porcine brain endothelial cells/rat astrocytes model system. It is filed as ADME, cell-based. The settings on record: read-out: permeability.
Data set [11] deals with Trypanosoma brucei rhodesiense. Kind of data set: […] activity against Trypanosoma brucei rhodesiense assessed as reduction in parasite viability after 2 hrs by time kill assay. Type of data set: functional, organism-based.
For the next data set, the system named is HeLa. The data set is described as §1. Type of data set: cell-based. The settings on record: hela.
In the next data set the test system is HUVEC. The data set is described as §2. It is filed as cell-based. The settings on record: human.

For the compound `COc1ccc2nc(C(F)(F)F)n(CC(=O)N3CC[C@H](NC4CCOC4)C[C@H]3c3ncc(-c4cc5ccccc5nc4OC)[nH]3)c2c1` (stereo partly specified), the EC50 in the data set with Trypanosoma brucei [1] came to 232 nM; with Trypanosoma brucei [4] it was 7 nM. For the same compound, the half-life in data set [2] is 3.1 h; in data set [3] it was 4 h. Also, the fraction unbound in data set [5] was determined as 0.047. Besides, the bioavailability in [6] is 103%. This compound also came in with a Cmax in data set [7] of 5 µM. Moreover, the CC50 in data set [8] is 7490 nM; in data set [9], 3680 nM.

On to `COc1ccc2nc(C(F)(F)F)n(C(=O)N3CCN(Cc4cnccn4)C[C@H]3c3ncc(-c4cc5ccccc5nc4OC)[nH]3)c2c1`, for which the EC50 in the data set on Trypanosoma brucei [4] was found to be 6 nM. On the same count and under the same terms, for `COc1nc2ccccc2cc1-c1cnc([C@@H]2CN(CC3CCOC3)CCN2C(=O)n2c(C)nc3cncnc32)[nH]1` (stereo partly specified) the value was 384 nM; for `COc1ccc2nc(C(F)(F)F)n(CC(=O)N3CCN(CC4CCOC4)CCC3c3ncc(-c4cc5ccccc5nc4OC)[nH]3)c2c1` (stereo unspecified), 51 nM; for `COc1ccc2nc(C(F)(F)F)n(C(=O)N3CCN(C4CCN(C)CC4)C[C@H]3c3ncc(-c4cc5ccccc5nc4OC)[nH]3)c2c1`, 180 nM. On the same count and under the same terms, as for `COc1ccc2nc(C(F)(F)F)n(C(=O)N3CCN(CC4CCOC4)C[C@H]3c3ncc(-c4cc5ccccc5nc4OC)[nH]3)c2c1` (stereo partly specified), the figure is 9 nM; as for `COc1ccc2[nH]c(C)c(C(=O)N3CCN(CC4CCOC4)C[C@H]3c3ncc(-c4cc5ccccc5nc4OC)[nH]3)c2c1` (mixture of isomers), 23 nM.

Consider `COc1nc2ccccc2cc1-c1cnc([C@@H]2CN(CC3CCOC3)CCN2C(=O)n2c(C(F)(F)F)nc3ccccc32)[nH]1` (stereo partly specified), for which the EC50 in the data set with Trypanosoma brucei [1] was found to be 850 nM; in the data set with Trypanosoma brucei [4], 20 nM. For the same compound, in data set [10], the Papp is 8.6 ×10⁻⁶ cm/s. The half-life in data set [2] was 2.6 h; in [3] it was 0.8 h. The outcome in data set [11] was Active. Besides, in data set [5], the fraction unbound was found to be 0.0204. Also, in data set [6], the bioavailability turned out to be 133%. The Cmax in data set [7] amounted to 6.9 µM. With `COc1ccc2nc(C(F)(F)F)n(CC(=O)N3CCS(=O)(=O)CC3c3ncc(-c4cc5ccccc5nc4OC)[nH]3)c2c1` (stereo unspecified), the EC50 with Trypanosoma brucei [4] is 355 nM.

With `COc1ccc2nc(C(F)(F)F)n(CC(=O)N3CCOCC3c3ncc(-c4cc5ccccc5nc4OC)[nH]3)c2c1` (stereo unspecified), in the data set on Trypanosoma brucei [4], the EC50 is 286 nM. Still for that read-out and setting: for `COc1ccc2nc(C(F)(F)F)n(C(=O)N3CCN(Cc4nccs4)C[C@H]3c3ncc(-c4cc5ccccc5nc4OC)[nH]3)c2c1` the value was 2 nM. As to `COc1ccc2[nH]c(C)c(CC(=O)N3CCN(CC4CCOC4)CC3c3ncc(-c4ccc5ccccc5c4)[nH]3)c2c1` (stereo unspecified), the Activity entry in the data set with HeLa and in the data set with HUVEC was “Non-Toxic” throughout.

Take `COc1ccc2nc(C(F)(F)F)n(CC(=O)N3CCCCC3c3ncc(-c4cc5ccccc5nc4OC)[nH]3)c2c1` (stereo unspecified): the EC50 in the data set with Trypanosoma brucei [4] turned out to be 73 nM. Still for that read-out and setting: as for `COc1ccc2nc(C(F)(F)F)n(CC(=O)N3CC[C@H](NCC4CCOC4)C[C@H]3c3ncc(-c4cc5ccccc5nc4OC)[nH]3)c2c1` (stereo partly specified), the figure is 17 nM.

For the compound `COc1nc2ccccc2cc1-c1cnc([C@@H]2CN(CC3CCOC3)CCN2C(=O)n2c(C)nc3ccccc32)[nH]1` (stereo partly specified), in the data set on Trypanosoma brucei [4], the EC50 is 163 nM. Same read-out and setting: for `COc1ccc2nc(C(F)(F)F)n(CC(=O)N3CC[C@H](N(C)C)C[C@H]3c3ncc(-c4cc5ccccc5nc4OC)[nH]3)c2c1` the value was 98 nM. Still for that read-out and setting: as for `COc1ccc2nc(C)n(C(=O)N3CCN(CC4CCOC4)C[C@H]3c3ncc(-c4cc5ccccc5nc4OC)[nH]3)c2c1` (stereo partly specified), the figure is 32 nM; as for `COc1ccc2nc(C(F)(F)F)n(CC(=O)N3C[C@H](NC4CCOC4)CC[C@H]3c3ncc(-c4cc5ccccc5nc4OC)[nH]3)c2c1` (stereo partly specified), 11 nM. On the same count and under the same terms, for `COc1ccc2nc(C(F)(F)F)n(CC(=O)N3CC[C@@H](N(C)C)C[C@H]3c3ncc(-c4cc5ccccc5nc4OC)[nH]3)c2c1` the value was 659 nM.

Values taken from ChEMBL document CHEMBL4627383, “Optimization of 2-(1H-imidazo-2-yl)piperazines series of Trypanosoma brucei growth inhibitors as potential treatment for the second stage of HAT” (Bioorg Med Chem Lett, 2020).
